{
  "source": "patent US20110112010A1",
  "about": "“OCTANOIC ACID FORMULATIONS AND METHODS OF TREATMENT USING THE SAME” (The Government of the United States of America, as …, priority 2008, published 2011)",
  "key": {"[1]": {"experiment": "Pharmacokinetics of oral 1-octanol and its metabolite octanoic acid in plasma of adults with Essential Tremor", "assay_type": "in vivo, human", "procedure": "Subjects: All subjects underwent a routine medical screening and neurological examination. A structured ethanol challenge was carried out to confirm tremors were ethanol-responsive. Subjects were videotaped at 0, 15, 30, 45, 60, and 75-minutes after receiving two servings (50-ml each) of 40% ethanol along with digitized spirography measures. Ethanol-responsive subjects then completed either a dose titration (1-64 mg/kg) inpatient study or a fixed dose (64 mg/kg) inpatient study to characterize the pharmacokinetics of 1-octanol and its predicted primary metabolite octanoic acid (OA). Plasma Sampling: During the inpatient study, subjects received oral 1-octanol followed by collection of plasma samples at the following intervals: 5, 20, 45, 70, 100, 130, 160, 210, 270 and 360-minutes post-dose. Samples were processed then batch analyzed using high-performance liquid chromatography and mass spectrometry methods to measure concentrations of 1-octanol and OA."}, "Essential Tremor [2]": {"test_system": "Essential Tremor", "experiment": "Tremor assessment by digitized Archimedes spirals after oral 1-octanol", "assay_type": "in vivo, human", "procedure": "Subjects: All subjects underwent a routine medical screening and neurological examination. A structured ethanol challenge was carried out to confirm tremors were ethanol-responsive. Subjects were videotaped at 0, 15, 30, 45, 60, and 75-minutes after receiving two servings (50-ml each) of 40% ethanol along with digitized spirography measures. Ethanol-responsive subjects then completed either a dose titration (1-64 mg/kg) inpatient study or a fixed dose (64 mg/kg) inpatient study to characterize the pharmacokinetics of 1-octanol and its predicted primary metabolite octanoic acid (OA). Tremor Assessment: To assess efficacy, subjects drew Archimedes spirals at fixed intervals on a digitizing tablet with an overlaid spiral guide. We used in-house analysis software to process the data before conducting a fast Fourier transform of tremor velocity to obtain our frequency and power measures."}, "Essential Tremor [3]": {"test_system": "Essential Tremor", "conditions": "humans with Essential Tremor; Bushara 2004, Shill 2004; cited from earlier work"}, "[4]": {"test_system": "hereditary essential tremor", "conditions": "patients with hereditary essential tremor; Brain 1994, 117: 805-824; cited from earlier work"}, "harmaline-induced tremor": {"test_system": "harmaline-induced tremor", "experiment": "Harmaline mouse model of essential tremor (motion power percentage)", "assay_type": "in vivo", "conditions": "male ICR mice, harmaline 20 mg/kg s.c., octanoic acid i.p. in PEG-300", "excerpt": "The harmaline model of essential tremor: Harmaline is a beta-carboline alkaloid that produces action tremor on systemic administration to mammals (see Llinas et al., Exp Brain Res 18:69 (1973)). […] Harmaline thus acts within the olivo-cerebellar system to produce tremor and can be used as a model to assess potential ET therapies (see Martin et al., Mov. Disord. 20:298 (2005)).\nAnimals: Male ICR mice (20-24 g) from Harlan (Indianapolis, Ind.) were housed in groups in standard cages with ad libitum access to commercial rodent diet and water.\nTremor measurement: Motion activity was measured with a Convuls-1 Replacement Sensing Platform model 1335-1A (Columbus Instruments, Columbus, Ohio), a metal platform with a load sensor beneath it, that is connected to a Grass model P511 AC amplifier (Grass Instruments, West Warwick, R.I.) with 1 and 70 Hz filter settings. Digitally recorded motion power was analyzed using Cambridge converter and software. Data was sampled at 128 Hz. The total motion power for each 20-minute epoch was calculated between 0 and 34 Hz (full motion spectrum) and between 10 and 16 Hz (the harmaline tremor frequency bandwidth); and the motion power percentage (10-16 Hz power)/(0-34 Hz power)×100 then calculated. This percentage is expressed as motion power percentage (MPP). […]"}},
  "data": [
    {"smiles": "CCCCCCCCO", "note": "[1-octanol]", "values": [
      {"measurement": "1-octanol concentration as a function of oral dose", "setting": "[1]; oral 1-octanol dose titration 1-64 mg/kg", "result": "remained at very low basal levels until the 64 mg/kg dose"},
      {"measurement": "peak tremor reduction from baseline", "setting": "Essential Tremor [2]; at 120 minutes post-dose", "result": 42, "unit": "%"},
      {"measurement": "persistence of tremor-reducing effect", "setting": "Essential Tremor [2]; last timepoint 360 minutes", "result": "> 360", "unit": "min"},
      {"measurement": "safety and tremor suppression in early human studies", "setting": "Essential Tremor [3]", "result": "safe and effective at tremor suppression"}
    ]},
    {"smiles": "CCO", "note": "[ethanol]", "values": [
      {"measurement": "proportion of patients in whom treatment was effective", "setting": "[4]", "result": 50, "unit": "%"}
    ]},
    {"smiles": "CCCCCCCC(=O)O", "note": "[octanoic acid]", "values": [
      {"measurement": "OA plasma half-life", "setting": "[1]; human, in vivo, po", "result": "approximately 74 minutes"},
      {"measurement": "earliest time at which OA plasma concentrations were detectable post-dose", "setting": "[1]; human, in vivo, po", "result": 5, "unit": "min"},
      {"measurement": "persistence of OA plasma levels following administration", "setting": "[1]; human, in vivo, po", "result": "up to 6 hours"},
      {"measurement": "suppression of harmaline-induced tremor", "setting": "harmaline-induced tremor", "result": "suppressed harmaline-induced tremor in a dose dependent fashion"}
    ]}
  ]
}
